Data from patent US20260325533A1, “CDK INHIBITOR COMPOUNDS” (ALEKSIA THERAPEUTICS, INC., priority 2023, published 2026).
Where two headings read alike, the source gives them in different places.

How the values were obtained:
Format in all cases: biochemical
CDK2/CCNE1 = CDK2/CCNE1 (Homo sapiens, UniProt P24941); experiment: CDK2 homogeneous time-resolved fluorescence (HTRF) kinase assay; conditions: CDK2/CCNE
In short: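 TR-FRET read-out (665 nm, or 665/615 ratio) of Eu-antibody detection of phospho-4E-BP1 (Thr37/46) ULight peptide. Enzyme 3 nM, ATP 1 mM, peptide 50 nM, 1% DMSO; 60 min reaction at 23 °C after 20 min compound preincubation. IC50 from 11-point half-log titrations, top typically 10 μM.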

CDK4/CCND3 = CDK4/CCND3 (Homo sapiens, UniProt P11802); experiment: CDK4 homogeneous time-resolved fluorescence (HTRF) kinase assay; conditions: CDK4/CCND
In short: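 IC50 values were derived from 11-point half-log dilutions, usually starting at 10 μM. Compound was first held for 20 min at 23 °C with 1.5 nM CDK4/CCND3. 1 mM ATP and 50 nM ULight-eIF4E-BP1 (Thr37/46) substrate were then added for 60 min, and the TR-FRET 665 nm signal was measured after EDTA stop and Eu-anti-phospho-4E-BP1 detection.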

CDK1/CCNB1 = CDK1/CCNB1 (Homo sapiens, UniProt P06493); experiment: CDK1 homogeneous time-resolved fluorescence (HTRF) kinase assay; conditions: CDK1/CCNB
In short: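 Read-out: TR-FRET (Eu anti-phospho-4E-BP1 Thr37/46 antibody, 2 nM; 665 nm or 665/615 ratio) after 60 min phosphorylation of 50 nM ULight-peptide by 0.5 nM CDK1/CCNB1 at 1 mM ATP, 23 °C. Compound preincubated 20 min with enzyme; 1% DMSO.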

CDK6/CCND1 = CDK6/CCND1 (Homo sapiens, UniProt Q00534); experiment: CDK6 homogeneous time-resolved fluorescence (HTRF) kinase assay; conditions: CDK6/CCND
In short: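 Recombinant CDK6/CCND1 (1 nM final) was preincubated with compound for 20 min at 23 °C in HEPES buffer with MgCl2, EGTA, DTT and Tween 20. Kinase reaction then ran 60 min at 23 °C with 1 mM ATP and 50 nM ULight-4E-BP1 (Thr37/46) peptide, and was stopped with EDTA.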

[1] = 25-250 nM marked x, read-out: CDK2/CCNE IC50 25-250 nM
[2] = >250 nM marked x, read-out: CDK4/CCND IC50 >250 nM
[3] = >250 nM marked x, read-out: CDK1/CCNB IC50 >250 nM
[4] = 25-250 nM marked x, read-out: CDK6/CCND IC50 25-250 nM
[5] = >250 nM marked x, read-out: CDK6/CCND IC50 >250 nM
[6] = 25-250 nM marked x, read-out: CDK4/CCND IC50 25-250 nM
[7] = >250 nM marked x, read-out: CDK2/CCNE IC50 >250 nM
[8] = <25 nM, read-out: CDK2/CCNE IC50 <25 nM

Sequence of CDK1/CCNB1 (P06493 whole entry): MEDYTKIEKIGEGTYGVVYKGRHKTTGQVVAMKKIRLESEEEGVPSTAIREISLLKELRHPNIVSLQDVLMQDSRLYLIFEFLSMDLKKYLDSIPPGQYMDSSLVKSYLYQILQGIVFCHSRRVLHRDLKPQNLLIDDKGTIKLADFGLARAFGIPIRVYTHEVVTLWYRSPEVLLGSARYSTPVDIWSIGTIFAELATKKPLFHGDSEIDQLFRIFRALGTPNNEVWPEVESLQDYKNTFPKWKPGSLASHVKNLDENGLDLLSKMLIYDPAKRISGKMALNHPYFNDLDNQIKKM
Sequence of CDK1/CCNB1 (P14635 whole entry partner): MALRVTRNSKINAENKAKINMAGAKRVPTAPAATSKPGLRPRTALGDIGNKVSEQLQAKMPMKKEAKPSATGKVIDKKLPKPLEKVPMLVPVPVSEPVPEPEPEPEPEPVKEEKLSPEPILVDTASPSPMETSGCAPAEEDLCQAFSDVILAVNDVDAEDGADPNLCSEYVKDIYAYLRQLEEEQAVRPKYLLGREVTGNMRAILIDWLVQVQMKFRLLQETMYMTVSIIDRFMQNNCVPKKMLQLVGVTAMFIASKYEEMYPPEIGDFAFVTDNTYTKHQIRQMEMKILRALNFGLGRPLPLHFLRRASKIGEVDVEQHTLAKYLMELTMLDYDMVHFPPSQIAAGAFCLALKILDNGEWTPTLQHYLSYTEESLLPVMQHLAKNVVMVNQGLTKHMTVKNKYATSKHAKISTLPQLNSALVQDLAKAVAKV
Sequence of CDK4/CCND3 (P11802 whole entry): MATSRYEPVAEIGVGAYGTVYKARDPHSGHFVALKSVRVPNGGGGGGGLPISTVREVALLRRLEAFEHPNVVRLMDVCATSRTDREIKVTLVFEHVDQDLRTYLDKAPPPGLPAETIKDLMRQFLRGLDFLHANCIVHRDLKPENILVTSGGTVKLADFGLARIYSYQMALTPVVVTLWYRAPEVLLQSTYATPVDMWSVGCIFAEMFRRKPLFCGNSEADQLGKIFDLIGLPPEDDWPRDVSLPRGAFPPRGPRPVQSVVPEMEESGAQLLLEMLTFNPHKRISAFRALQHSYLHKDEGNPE
Sequence of CDK4/CCND3 (P30281 whole entry partner): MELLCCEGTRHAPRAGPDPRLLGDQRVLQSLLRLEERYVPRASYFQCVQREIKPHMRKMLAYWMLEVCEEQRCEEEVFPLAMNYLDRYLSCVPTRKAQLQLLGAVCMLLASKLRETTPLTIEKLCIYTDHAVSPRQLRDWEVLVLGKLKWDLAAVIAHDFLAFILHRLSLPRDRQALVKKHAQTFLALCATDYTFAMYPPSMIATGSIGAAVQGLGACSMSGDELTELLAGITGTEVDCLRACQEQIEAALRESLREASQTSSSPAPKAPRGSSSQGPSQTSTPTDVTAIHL
Sequence of CDK6/CCND1 (Q00534 whole entry): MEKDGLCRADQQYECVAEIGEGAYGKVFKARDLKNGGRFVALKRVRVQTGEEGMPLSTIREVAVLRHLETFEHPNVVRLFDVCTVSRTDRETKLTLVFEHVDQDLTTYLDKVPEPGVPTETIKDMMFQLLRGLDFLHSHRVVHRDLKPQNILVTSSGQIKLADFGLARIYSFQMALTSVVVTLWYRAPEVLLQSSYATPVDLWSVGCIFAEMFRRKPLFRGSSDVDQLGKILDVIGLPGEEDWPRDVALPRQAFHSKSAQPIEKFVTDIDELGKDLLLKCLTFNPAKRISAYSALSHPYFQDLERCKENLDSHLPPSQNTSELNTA
Sequence of CDK6/CCND1 (P24385 whole entry partner): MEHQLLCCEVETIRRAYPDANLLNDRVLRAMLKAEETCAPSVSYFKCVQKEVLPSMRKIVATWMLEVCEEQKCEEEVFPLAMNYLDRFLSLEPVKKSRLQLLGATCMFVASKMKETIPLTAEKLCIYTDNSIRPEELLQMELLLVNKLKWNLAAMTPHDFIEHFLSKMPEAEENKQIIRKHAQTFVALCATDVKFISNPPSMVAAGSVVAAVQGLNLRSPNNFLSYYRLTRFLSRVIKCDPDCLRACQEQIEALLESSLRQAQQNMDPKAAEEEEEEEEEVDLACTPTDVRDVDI

C=CS(=O)(=O)c1ccc(Nc2cc3c(-c4ccc5cn[nH]c5c4)nccc3cn2)cc1 [Ex 241, 5-(1H-indazol-6-yl)-N-(4-(vinylsulfonyl)phenyl)-2,6-naphthyridin-3-amine]
IC50 (CDK2/CCNE1; [1]): 25 to 250 nM | IC50 (CDK4/CCND3; [2]): > 250 nM | IC50 (CDK1/CCNB1; [3]): > 250 nM | IC50 (CDK6/CCND1; [4]): 25 to 250 nM

Cc1c(-c2nccc3cnc(Nc4ccc(S(C)(=O)=O)cc4)cc23)ccc2c1cnn2C1CCN(C)CC1 [Ex 242, 5-(4-methyl-1-(1-methylpiperidin-4-yl)-1H-indazol-5-yl)-N-(4-(methylsulfonyl)phenyl)-2,6-naphthyridin-3-amine]
IC50 (CDK2/CCNE1; [1]): 25 to 250 nM | IC50 (CDK4/CCND3; [2]): > 250 nM | IC50 (CDK1/CCNB1; [3]): > 250 nM | IC50 (CDK6/CCND1; [5]): > 250 nM

Cc1c(-c2nccc3cnc(Nc4ccc(S(C)(=O)=O)cc4)cc23)ccc2c1cnn2CC1CN(C)C1 [Ex 243, 5-(4-methyl-1-((1-methylazetidin-3-yl)methyl)-1H-indazol-5-yl)-N-(4-(methylsulfonyl)phenyl)-2,6-naphthyridin-3-amine]
IC50 (CDK2/CCNE1; [1]): 25 to 250 nM | IC50 (CDK4/CCND3; [6]): 25 to 250 nM | IC50 (CDK1/CCNB1; [3]): > 250 nM | IC50 (CDK6/CCND1; [4]): 25 to 250 nM

CC(C)(C)c1nccc2cnc(Nc3ccc(S(C)(=O)=O)cc3)cc12 [Ex 244, 5-(tert-butyl)-N-(4-(methylsulfonyl)phenyl)-2,6-naphthyridin-3-amine]
IC50 (CDK2/CCNE1; [1]): 25 to 250 nM | IC50 (CDK4/CCND3; [2]): > 250 nM | IC50 (CDK1/CCNB1; [3]): > 250 nM | IC50 (CDK6/CCND1; [4]): 25 to 250 nM

C=CS(=O)(=O)c1ccc(Nc2cc3c(-c4ccc5[nH]ncc5c4C)nccc3cn2)cc1 [Ex 245, 5-(4-methyl-1H-indazol-5-yl)-N-(4-(vinylsulfonyl)phenyl)-2,6-naphthyridin-3-amine]
IC50 (CDK2/CCNE1; [1]): 25 to 250 nM | IC50 (CDK4/CCND3; [2]): > 250 nM | IC50 (CDK1/CCNB1; [3]): > 250 nM | IC50 (CDK6/CCND1; [5]): > 250 nM

CC(=O)N[C@H]1CC[C@H](C#Cc2nccc3cnc(Nc4ccc(S(C)(=O)=O)cc4)cc23)CC1 [Ex 246, N-((1r,4r)-4-((7-((4-(methylsulfonyl)phenyl)amino)-2,6-naphthyridin-1-yl)ethynyl)cyclohexyl)acetamide]
IC50 (CDK2/CCNE1; [1]): 25 to 250 nM | IC50 (CDK4/CCND3; [6]): 25 to 250 nM | IC50 (CDK1/CCNB1; [3]): > 250 nM | IC50 (CDK6/CCND1; [4]): 25 to 250 nM

CS(=O)(=O)c1ccc(Nc2cc3c(C#C[C@H]4CC[C@H](N)CC4)nccc3cn2)cc1 [Ex 247, 5-(((1r,4r)-4-aminocyclohexyl)ethynyl)-N-(4-(methylsulfonyl)phenyl)-2,6-naphthyridin-3-amine]
IC50 (CDK2/CCNE1; [1]): 25 to 250 nM | IC50 (CDK4/CCND3; [6]): 25 to 250 nM | IC50 (CDK1/CCNB1; [3]): > 250 nM | IC50 (CDK6/CCND1; [4]): 25 to 250 nM

CS(=O)(=O)c1ccc(Nc2cc3c(N4CC5(CN(c6ccc(C#N)cc6)C5)C4)nccc3cn2)cc1 [Ex 248, 4-(6-(7-((4-(methylsulfonyl)phenyl)amino)-2,6-naphthyridin-1-yl)-2,6-diazaspiro[3.3]heptan-2-yl)benzonitrile]
IC50 (CDK2/CCNE1; [7]): > 250 nM | IC50 (CDK4/CCND3; [2]): > 250 nM | IC50 (CDK1/CCNB1; [3]): > 250 nM | IC50 (CDK6/CCND1; [5]): > 250 nM

CN(C)C/C=C/S(=O)(=O)c1ccc(Nc2cc3c(N4CCC(C#N)CC4)nccc3cn2)cc1 [Ex 249, (E)-1-(7-((4-((3-(dimethylamino)prop-1-en-1-yl)sulfonyl)phenyl)amino)-2,6-naphthyridin-1-yl)piperidine-4-carbonitrile]
IC50 (CDK2/CCNE1; [7]): > 250 nM | IC50 (CDK4/CCND3; [6]): 25 to 250 nM | IC50 (CDK1/CCNB1; [3]): > 250 nM | IC50 (CDK6/CCND1; [5]): > 250 nM

Cc1c(-c2nccc3cnc(Nc4ccc(S(C)(=O)=O)cc4)cc23)ccc2nn(CC(N)=O)cc12 [Ex 250, 2-(4-methyl-5-(7-((4-(methylsulfonyl)phenyl)amino)-2,6-naphthyridin-1-yl)-2H-indazol-2-yl)acetamide]
IC50 (CDK2/CCNE1; [8]): < 25 nM | IC50 (CDK4/CCND3; [6]): 25 to 250 nM | IC50 (CDK1/CCNB1; [3]): > 250 nM | IC50 (CDK6/CCND1; [4]): 25 to 250 nM

CS(=O)(=O)N1CCC(Nc2cc3c(C#Cc4ccc(C#N)cc4)nccc3cn2)CC1 [Ex 251, 4-((7-((1-(methylsulfonyl)piperidin-4-yl)amino)-2,6-naphthyridin-1-yl)ethynyl)benzonitrile]
IC50 (CDK2/CCNE1; [8]): < 25 nM | IC50 (CDK4/CCND3; <25 nM, read-out: CDK4/CCND IC50 <25 nM): < 25 nM | IC50 (CDK1/CCNB1; [3]): > 250 nM | IC50 (CDK6/CCND1; [4]): 25 to 250 nM

O=C(O)c1ccc(Nc2cc3c(C4=CCCCC4)nccc3cn2)cc1 [Ex 253, 4-((5-(cyclohex-1-en-1-yl)-2,6-naphthyridin-3-yl)amino)benzoic acid]
IC50 (CDK2/CCNE1; [8]): < 25 nM | IC50 (CDK4/CCND3; [6]): 25 to 250 nM | IC50 (CDK1/CCNB1; [3]): > 250 nM | IC50 (CDK6/CCND1; [4]): 25 to 250 nM

Cc1c(-c2nccc3cnc(Nc4ccc(S(C)(=O)=O)cc4)cc23)ccc2c1cnn2CCO [Ex 267, 2-(4-methyl-5-(7-((4-(methylsulfonyl)phenyl)amino)-2,6-naphthyridin-1-yl)-1H-indazol-1-yl)ethan-1-ol]
IC50 (CDK2/CCNE1; [8]): < 25 nM | IC50 (CDK4/CCND3; [6]): 25 to 250 nM | IC50 (CDK1/CCNB1; 25-250 nM marked x, read-out: CDK1/CCNB IC50 25-250 nM): 25 to 250 nM | IC50 (CDK6/CCND1; [4]): 25 to 250 nM

CCC1(CC)C(=O)Nc2cc(C#Cc3nccc4cnc(Nc5ccc(S(=O)(=O)C6CC(F)(F)C6)cc5OC)cc34)ccc21 [Ex 277, 6-((7-((4-((3,3-difluorocyclobutyl)sulfonyl)-2-methoxyphenyl)amino)-2,6-naphthyridin-1-yl)ethynyl)-3,3-diethylindolin-2-one]
IC50 (CDK2/CCNE1; [1]): 25 to 250 nM | IC50 (CDK4/CCND3; [2]): > 250 nM | IC50 (CDK1/CCNB1; [3]): > 250 nM | IC50 (CDK6/CCND1; [5]): > 250 nM

O=C1Nc2cc(C#Cc3nccc4cnc(Nc5ccc(S(=O)(=O)CC(F)(F)F)cc5)cc34)ccc2C12CC2 [Ex 282, 6'-((7-((4-((2,2,2-trifluoroethyl)sulfonyl)phenyl)amino)-2,6-naphthyridin-1-yl)ethynyl)spiro[cyclopropane-1,3'-indolin]-2'-one]
IC50 (CDK2/CCNE1; [8]): < 25 nM | IC50 (CDK4/CCND3; [2]): > 250 nM | IC50 (CDK1/CCNB1; [3]): > 250 nM | IC50 (CDK6/CCND1; [5]): > 250 nM

CCC1(CC)C(=O)Nc2cc(C#Cc3nccc4cnc(Nc5ccc(S(=O)(=O)CC(F)(F)F)cc5F)cc34)ccc21 [Ex 283, 3,3-diethyl-6-((7-((2-fluoro-4-((2,2,2-trifluoroethyl)sulfonyl)phenyl)amino)-2,6-naphthyridin-1-yl)ethynyl)indolin-2-one]
IC50 (CDK2/CCNE1; [7]): > 250 nM | IC50 (CDK4/CCND3; [2]): > 250 nM | IC50 (CDK1/CCNB1; [3]): > 250 nM | IC50 (CDK6/CCND1; [5]): > 250 nM

CCC1(CC)C(=O)Nc2cc(C#Cc3nccc4cnc(Nc5ccc(S(=O)(=O)CC(F)(F)F)cc5C)cc34)ccc21 [Ex 286, 3,3-diethyl-6-((7-((2-methyl-4-((2,2,2-trifluoroethyl)sulfonyl)phenyl)amino)-2,6-naphthyridin-1-yl)ethynyl)indolin-2-one]
IC50 (CDK2/CCNE1; [1]): 25 to 250 nM | IC50 (CDK4/CCND3; [2]): > 250 nM | IC50 (CDK1/CCNB1; [3]): > 250 nM | IC50 (CDK6/CCND1; [5]): > 250 nM

CC1(C)C(=O)Nc2cc(C#Cc3nccc4cnc(Nc5ccc(S(C)(=O)=O)cc5C(F)F)cc34)ccc21 [Ex 312, 6-((7-((2-(difluoromethyl)-4-(methylsulfonyl)phenyl)amino)-2,6-naphthyridin-1-yl)ethynyl)-3,3-dimethylindolin-2-one]
IC50 (CDK2/CCNE1; [8]): < 25 nM | IC50 (CDK4/CCND3; [2]): > 250 nM | IC50 (CDK1/CCNB1; [3]): > 250 nM | IC50 (CDK6/CCND1; [5]): > 250 nM

CCC1(CC)C(=O)Nc2cc(C#Cc3nccc4cnc(Nc5ccc(S(=O)(=O)C(C)C)cc5OC)cc34)ccc21 [Ex 338, 3,3-diethyl-6-((7-((4-(isopropylsulfonyl)-2-methoxyphenyl)amino)-2,6-naphthyridin-1-yl)ethynyl)indolin-2-one]
IC50 (CDK2/CCNE1; [1]): 25 to 250 nM | IC50 (CDK4/CCND3; [2]): > 250 nM | IC50 (CDK1/CCNB1; [3]): > 250 nM | IC50 (CDK6/CCND1; [5]): > 250 nM

Cc1cc(S(C)(=O)=O)ccc1Nc1cc2c(C#Cc3cc4c(cc3F)C(C)(C)C(=O)N4)nccc2cn1 [Ex 342, 5-fluoro-3,3-dimethyl-6-((7-((2-methyl-4-(methylsulfonyl)phenyl)amino)-2,6-naphthyridin-1-yl)ethynyl)indolin-2-one]
IC50 (CDK2/CCNE1; [8]): < 25 nM | IC50 (CDK4/CCND3; [2]): > 250 nM | IC50 (CDK1/CCNB1; [3]): > 250 nM | IC50 (CDK6/CCND1; [5]): > 250 nM

Cc1cc(S(C)(=O)=O)ccc1Nc1cc2c(C#Cc3ccc4c(c3)NC(=O)C43CC3)nccc2cn1 [Ex 351, 6'-((7-((2-methyl-4-(methylsulfonyl)phenyl)amino)-2,6-naphthyridin-1-yl)ethynyl)spiro[cyclopropane-1,3'-indolin]-2'-one]
IC50 (CDK2/CCNE1; x = IC50 <25 nM, read-out: CDK2/CCNE IC50 (<25 nM)): < 25 nM | IC50 (CDK4/CCND3; x = IC50 >250 nM, read-out: CDK4/CCND IC50 (>250 nM column)): > 250 nM | IC50 (CDK1/CCNB1; x = IC50 >250 nM, read-out: CDK1/CCNB IC50 (>250 nM column)): > 250 nM | IC50 (CDK6/CCND1; x = IC50 >250 nM, read-out: CDK6/CCND IC50 (>250 nM column)): > 250 nM
